# Measured values from patent US9765068B2, “PRMT5 inhibitors and uses thereof” (Epizyme, Inc., priority 2012, dated 2017).
# Target: PRMT5/MEP50 (Homo sapiens (Human), UniProt O14744)
# Assay: PRMT5 Biochemical Assay (PRMT5/MEP50 enzyme assay on peptide substrate, 3H-SAM Flashplate)
# Conditions: PRMT5/MEP50 4 nM, 3H-SAM 75 nM, peptide 40 nM
# Excerpt: General Materials. S-adenosylmethionine (SAM), S-adenosylhomocysteine (SAH), bicine, KCl, Tween20, dimethylsulfoxide (DMSO), bovine skin gelatin (BSG), and Tris(2-carboxyethyl)phosphine hydrochloride solution (TCEP) were purchased from Sigma-Aldrich at the highest level of purity possible. ^3H-SAM was purchase from American Radiolabeled Chemicals with a specific activity of 80 Ci/mmol. 384-well streptavidin Flashplates were purchased from PerkinElmer.
# Substrates. Peptide representative of human histone H4 residues 1-15 was synthesized with a C-terminal linker-affinity tag motif and a C-terminal amide cap by 21st Century Biochemicals. […] The sequence was Ac-[…][K-Biot]-amide (SEQ ID NO.:3).
# Full-length human MEP50 (NM_024102) clone was amplified from a human testis cDNA library incorporating a 5′ sequence encoding a 6-histidine tag (MHHHHHH) (SEQ ID NO.:5) fused directly to Arg 2 of MEP50. The amplified genes were sublconed into pENTR/D/TEV (Life Technologies) and subsequently transferred by Gateway™ attL×attR recombination to pDEST8 baculvirus expression vector (Life Technologies).
# Protein Expression. Recombinant baculovirus and Baculovirus-Infected Insect Cells (BIIC) were generated according to Bac-to-Bac kit instructions (Life Technologies) and Wasilko, 2006, respectively. Protein over-expression was accomplished by infecting exponentially growing Spodoptera frugiperda (SF9) cell culture at 1.2×10^6 cell/ml with a 5000 fold dilution of BIIC stock. Infections were carried out at 27° C. for 72 hours, harvested by centrifugation, and stored at −80° C. for purification.
# Protein Purification. […] Flag-PRMT5/6His-MeP50 was eluted with 300 mM Imidazole in the same buffer. […] Reference: Wasilko, D. J. and S. E. Lee: “TIPS: titerless infected-cells preservation and scale-up” Bioprocess J., 5 (2006), pp. 29-32.
# General Procedure for PRMT5/MEP50 Enzyme Assays on Peptide Substrates.
# The assays were all performed in a buffer consisting of 20 mM Bicine (pH=7.6), 1 mM TCEP, 0.005% BSG, and 0.002% Tween20, prepared on the day of use. Compounds in 100% DMSO (1 ul) were spotted into a polypropylene 384-well V-bottom plates (Greiner) using a Platemate Plus outfitted with a 384-channel head (Thermo Scientific). DMSO (1 ul) was added to Columns 11, 12, 23, 24, rows A-H for the maximum signal control and 1 ul of SAH, a known product and inhibitor of PRMT5/MEP50, was added to columns 11, 12, 23, 24, rows I-P for the minimum signal control. A cocktail (40 ul) containing the PRMT5/MEP50 enzyme and the peptide was added by Multidrop Combi (Thermo-Fisher). The compounds were allowed to incubate with PRMT5/MEP50 for 30 min at 25 degrees Celsius, then a cocktail (10 ul) containing ^3H-SAM was added to initiate the reaction (final volume=51 ul). The final concentrations of the components were as follows: PRMT5/MEP50 was 4 nM, ^3H-SAM was 75 nM, peptide was 40 nM, SAH in the minimum signal control wells was 100 uM, and the DMSO concentration was 1%. The assays were stopped by the addition of non-radioactive SAM (10 ul) to a final concentration of 600 uM, which dilutes the ^3H-SAM to a level where its incorporation into the peptide substrate is no longer detectable. 50 ul of the reaction in the 384-well polypropylene plate was then transferred to a 384-well Flashplate and the biotinylated peptides were allowed to bind to the streptavidin surface for at least 1 hour before being washed three times with 0.1% Tween20 in a Biotek ELx405 plate washer. The plates were then read in a PerkinElmer TopCount plate reader to measure the quantity of ^3H-labeled peptide bound to the Flashplate surface, measured as disintegrations per minute (dpm) or alternatively, referred to as counts per minute (cpm).
# [formula] Where dpm=disintegrations per minute, cmpd=signal in assay well, and min and max are the respective minimum and maximum signal controls.
# Sequence of PRMT5/MEP50 (O14744 other isoform, or with tags, fused parts or gaps): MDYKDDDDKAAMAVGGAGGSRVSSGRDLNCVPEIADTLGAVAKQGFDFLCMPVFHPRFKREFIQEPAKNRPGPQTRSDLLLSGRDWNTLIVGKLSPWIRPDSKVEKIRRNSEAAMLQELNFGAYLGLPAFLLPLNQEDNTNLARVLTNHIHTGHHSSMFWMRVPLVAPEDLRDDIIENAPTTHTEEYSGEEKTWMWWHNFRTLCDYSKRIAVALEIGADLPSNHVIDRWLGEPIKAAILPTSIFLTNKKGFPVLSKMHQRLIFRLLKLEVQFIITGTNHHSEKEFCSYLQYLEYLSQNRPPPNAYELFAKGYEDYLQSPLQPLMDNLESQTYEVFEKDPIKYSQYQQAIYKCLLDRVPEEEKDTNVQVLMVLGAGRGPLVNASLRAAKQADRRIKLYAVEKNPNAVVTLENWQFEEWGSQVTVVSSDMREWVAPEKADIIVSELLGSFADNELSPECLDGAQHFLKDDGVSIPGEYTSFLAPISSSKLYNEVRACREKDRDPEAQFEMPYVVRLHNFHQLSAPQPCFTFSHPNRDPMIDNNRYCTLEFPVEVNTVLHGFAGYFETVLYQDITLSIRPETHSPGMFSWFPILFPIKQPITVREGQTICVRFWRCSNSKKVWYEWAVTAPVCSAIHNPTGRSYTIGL
# Sequence of PRMT5/MEP50 (Q9BQA1 other isoform, or with tags, fused parts or gaps partner): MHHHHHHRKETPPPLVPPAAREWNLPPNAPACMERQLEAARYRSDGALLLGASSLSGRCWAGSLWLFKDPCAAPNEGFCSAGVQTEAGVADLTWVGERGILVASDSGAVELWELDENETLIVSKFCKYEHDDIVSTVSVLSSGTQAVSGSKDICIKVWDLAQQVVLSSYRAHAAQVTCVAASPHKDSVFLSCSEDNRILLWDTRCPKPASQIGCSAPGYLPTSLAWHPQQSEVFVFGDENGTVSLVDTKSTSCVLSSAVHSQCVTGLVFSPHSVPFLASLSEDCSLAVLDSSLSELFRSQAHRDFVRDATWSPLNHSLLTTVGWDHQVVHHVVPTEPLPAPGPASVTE
row,Compound,IC50 [µM]
1,"O=C(COc1ccccc1)NCC(O)CN1CCc2ccccc2C1 (centres unmarked) [Compound 1, N-(3-(3,4-dihydroisoquinolin-2(1H)-yl)-2-hydroxypropyl)-2-phenoxyacetamide]",0.101 to 1
2,O=C(CCc1ccccc1)NCC(O)CN1CCc2ccccc2C1 (centres unmarked) [Compound 2],1 to 10
3,CN(CC(O)CN1CCc2ccccc2C1)C(=O)CCc1ccccc1 (centres unmarked) [Compound 3],1 to 10
4,CN(CC(O)CN1CCc2ccccc2C1)C(=O)COc1ccccc1 (centres unmarked) [Compound 5],10 to 50
5,"O=C(COc1cccc(F)c1)NCC(O)CN1CCc2ccccc2C1 (centres unmarked) [Compound 7, N-(3-(3,4-dihydroisoquinolin-2(1H)-yl)-2-hydroxypropyl)-2-(3-fluorophenoxy)acetamide]",0.101 to 1
6,"N#Cc1cccc(OCC(=O)NCC(O)CN2CCc3ccccc3C2)c1 (centres unmarked) [Compound 8, 2-(3-cyanophenoxy)-N-(3-(3,4-dihydroisoquinolin-2(1H)-yl)-2-hydroxypropyl)acetamide]",0.101 to 1
7,"Cc1ccc(OCC(=O)NCC(O)CN2CCc3ccccc3C2)cc1 (centres unmarked) [Compound 9, N-(3-(3,4-dihydroisoquinolin-2(1H)-yl)-2-hydroxypropyl)-2-(p-tolyloxy)acetamide]",0.101 to 1
8,O=C(COc1ccc(F)cc1)NCC(O)CN1CCc2ccccc2C1 (centres unmarked) [Compound 10],1 to 10
9,N#Cc1ccc(OCC(=O)NCC(O)CN2CCc3ccccc3C2)cc1 (centres unmarked) [Compound 11],0.101 to 1
10,"COc1ccc(OCC(=O)NCC(O)CN2CCc3ccccc3C2)cc1 (centres unmarked) [Compound 12, N-(3-(3,4-dihydroisoquinolin-2(1H)-yl)-2-hydroxypropyl)-2-(4-methoxyphenoxy)acetamide]",0.101 to 1
11,NC(=O)c1ccc(OCC(=O)NCC(O)CN2CCc3ccccc3C2)cc1 (centres unmarked) [Compound 13],1 to 10
12,CS(=O)(=O)c1ccc(OCC(=O)NCC(O)CN2CCc3ccccc3C2)cc1 (centres unmarked) [Compound 14],1 to 10
13,"Cc1ccccc1OCC(=O)NCC(O)CN1CCc2ccccc2C1 (centres unmarked) [Compound 15, N-(3-(3,4-dihydroisoquinolin-2(1H)-yl)-2-hydroxypropyl)-2-(o-tolyloxy)acetamide]",0.101 to 1
14,O=C(COc1ccccc1F)NCC(O)CN1CCc2ccccc2C1 (centres unmarked) [Compound 16],0.101 to 1
15,N#Cc1ccccc1OCC(=O)NCC(O)CN1CCc2ccccc2C1 (centres unmarked) [Compound 17],0.101 to 1
16,O=C(CNc1ccccc1)NCC(O)CN1CCc2ccccc2C1 (centres unmarked) [Compound 18],1 to 10
17,"CC(=O)Nc1ccc(OCC(=O)NCC(O)CN2CCc3ccccc3C2)cc1 (centres unmarked) [Compound 21, 2-(4-acetamidophenoxy)-N-(3-(3,4-dihydroisoquinolin-2(1H)-yl)-2-hydroxypropyl)acetamide]",0.101 to 1
18,"O=C(COC1CCCCC1)NCC(O)CN1CCc2ccccc2C1 (centres unmarked) [Compound 24, 2-(cyclohexyloxy)-N-(3-(3,4-dihydroisoquinolin-2(1H)-yl)-2-hydroxypropyl)acetamide]",0.101 to 1
19,"CC(C)(Oc1ccccc1)C(=O)NCC(O)CN1CCc2ccccc2C1 (centres unmarked) [Compound 25, N-(3-(3,4-dihydroisoquinolin-2(1H)-yl)-2-hydroxypropyl)-2-methyl-2-phenoxypropanamide]",0.101 to 1
20,NC(=O)c1ccccc1OCC(=O)NCC(O)CN1CCc2ccccc2C1 (centres unmarked) [Compound 29],0.101 to 1
21,"CC(=O)Nc1cccc(OCC(=O)NCC(O)CN2CCc3ccccc3C2)c1 (centres unmarked) [Compound 31, 2-(3-acetamidophenoxy)-N-(3-(3,4-dihydroisoquinolin-2(1H)-yl)-2-hydroxypropyl)acetamide]",1 to 10
22,O=C(COc1ccccc1)NC[C@H](O)CN1CCc2ccccc2C1 [Compound 32],0.101 to 1
23,O=C(COc1ccccc1)NC[C@@H](O)CN1CCc2ccccc2C1 [Compound 33],1 to 10
24,"NC(=O)c1cccc(OCC(=O)NCC(O)CN2CCc3ccccc3C2)c1 (centres unmarked) [Compound 34, 3-(2-((3-(3,4-dihydroisoquinolin-2(1H)-yl)-2-hydroxypropyl)amino)-2-oxoethoxy)benzamide]",0.101 to 1
25,CN(C)c1ccc(OCC(=O)NCC(O)CN2CCc3ccccc3C2)cc1 (centres unmarked) [Compound 35],0.101 to 1

row,Compound,IC50 [µM]
1,CC(=O)Nc1ccccc1OCC(=O)NCC(O)CN1CCc2ccccc2C1 (centres unmarked) [Compound 36],0.101 to 1
2,O=C(COC1CCOCC1)NCC(O)CN1CCc2ccccc2C1 (centres unmarked) [Compound 41],1 to 10
3,CS(=O)(=O)Nc1ccc(OCC(=O)NCC(O)CN2CCc3ccccc3C2)cc1 (centres unmarked) [Compound 42],0.101 to 1
4,"O=C(COc1cccc2cccnc12)NC[C@H](O)CN1CCc2ccccc2C1 [Compound 44, (S)—N-(3-(3,4-dihydroisoquinolin-2(1H)-yl)-2-hydroxypropyl)-2-(quinolin-8-yloxy)acetamide]",0.101 to 1
5,"Cn1cnc2cc(OCC(=O)NCC(O)CN3CCc4ccccc4C3)ccc21 (centres unmarked) [Compound 46, N-(3-(3,4-dihydroisoquinolin-2(1H)-yl)-2-hydroxypropyl)-2-((1-methyl-1H-benzo[d]imidazol-5-yl)oxy)acetamide]",0.101 to 1
6,O=C(Cc1ccncc1)NCC(O)CN1CCc2ccccc2C1 (centres unmarked) [Compound 51],10 to 50
7,NS(=O)(=O)c1ccc(OCC(=O)NCC(O)CN2CCc3ccccc3C2)cc1 (centres unmarked) [Compound 52],1 to 10
8,"Cn1nccc1-c1cccc(CC(=O)NCC(O)CN2CCc3ccccc3C2)c1 (centres unmarked) [Compound 54, N-(3-(3,4-dihydroisoquinolin-2(1H)-yl)-2-hydroxypropyl)-2-(3-(1-methyl-1H-pyrazol-5-yl)phenyl)acetamide]",0.101 to 1
9,O=C(Cc1ccccc1)NC[C@H](O)CN1CCc2ccccc2C1 [Compound 55],0.101 to 1
10,O=C(CC1CCCCC1)NC[C@H](O)CN1CCc2ccccc2C1 [Compound 56],1 to 10
11,O=C(Cc1ccccc1)NC[C@@H](O)CN1CCc2ccccc2C1 [Compound 57],10 to 50
12,O=C(CC1CCCCC1)NC[C@@H](O)CN1CCc2ccccc2C1 [Compound 58],10 to 50
13,"O=C(Cc1cccc2cccnc12)NCC(O)CN1CCc2ccccc2C1 (centres unmarked) [Compound 60, N-(3-(3,4-dihydroisoquinolin-2(1H)-yl)-2-hydroxypropyl)-2-(quinolin-8-yl)acetamide]",0.101 to 1
14,Cn1cnc2ccc(NCC(=O)NCC(O)CN3CCc4ccccc4C3)cc21 (centres unmarked) [Compound 69],0.101 to 1
15,C[C@H](Oc1cccc2cccnc12)C(=O)NC[C@@H](O)CN1CCc2ccccc2C1 [Compound 72],1 to 10
16,O=C(COc1ccccc1N1CCOCC1)NC[C@@H](O)CN1CCc2ccccc2C1 [Compound 78],0.101 to 1
17,O=C(COc1cccc(C(=O)N2CCOCC2)c1)NCC(O)CN1CCc2ccccc2C1 (centres unmarked) [Compound 83],0.101 to 1
18,CN1CCN(c2ccccc2OCC(=O)NC[C@@H](O)CN2CCc3ccccc3C2)CC1 [Compound 85],1 to 10
19,O=C(COc1ccccc1OCCN1CCOCC1)NC[C@@H](O)CN1CCc2ccccc2C1 [Compound 87],1 to 10
20,CN(C)CCOc1ccccc1OCC(=O)NC[C@@H](O)CN1CCc2ccccc2C1 [Compound 89],0.101 to 1
21,COc1ccc2cccc(OCC(=O)NC[C@H](O)CN3CCc4ccccc4C3)c2n1 [Compound 97],0.101 to 1
22,CN(C)c1ccc2cccc(OCC(=O)NC[C@H](O)CN3CCc4ccccc4C3)c2n1 [Compound 104],0.101 to 1
23,CS(=O)(=O)N1CCN(c2ccccc2OCC(=O)NCC(O)CN2CCc3ccccc3C2)CC1 (centres unmarked) [Compound 106],0.101 to 1
24,CNC(=O)c1ccccc1OCC(=O)NCC(O)CN1CCc2ccccc2C1 (centres unmarked) [Compound 112],0.101 to 1
25,CN(C)C(=O)c1ccccc1OCC(=O)NCC(O)CN1CCc2ccccc2C1 (centres unmarked) [Compound 113],0.101 to 1
